From patent publication US20150216171A1, “HERBICIDALLY ACTIVE BICYCLOARYL CARBOXYLIC ACID AMIDES” (BAYER CROPSCIENCE AG, priority 2012, published 2015)

Tests used:
Format in all cases: in vivo
rice = assay: Post-emergence test, damage to crop plants; conditions: application rate 80 g/ha, scored visually after about 3 weeks
Procedure: (§1) Seeds of monocotyledonous and dicotyledonous weed and crop plants are laid out in sandy loam in wood-fiber pots, covered with soil and cultivated in a greenhouse under good growth conditions. 2 to 3 weeks after sowing, the test plants are treated at the one-leaf stage. The inventive compounds, formulated in the form of wettable powders (WP) or as emulsion concentrates (EC), are then sprayed as aqueous suspension or emulsion at a water application rate equating to 600 to 800 I/ha with the addition of 0.2% of wetting agent onto the green parts of the plants. After the trial plants have been left to stand in a greenhouse under optimal growth conditions for about 3 weeks, the efficacy of the formulations is scored visually in comparison to untreated controls (herbicidal action in percent (%): 100% efficacy=the plants have died, 0% efficacy=like control plants). In this test, for example, compounds no. […] Compounds no. […] Compounds no.

wheat [1] = assay: Post-emergence test, damage to crop plants; conditions: application rate 80 g/ha, scored visually after about 3 weeks
Procedure: as §1

wheat [2] = assay: Pre-emergence test, damage to crop plants; conditions: application rate 320 g/ha, scored visually after 3 weeks
Source text: (§2) Seeds of monocotyledonous and dicotyledonous weed plants and crop plants are laid out in wood-fiber pots in sandy loam and covered with soil. The inventive compounds, formulated in the form of wettable powders (WP) or as emulsion concentrates (EC), are then applied to the surface of the soil cover in the form of an aqueous suspension or emulsion at a water application rate equating to 600 to 800 l/ha, with addition of 0.2% wetting agent. After the treatment, the pots are placed in a greenhouse and kept under good growth conditions for the test plants. The damage to the trial plants is scored visually after a test period of 3 weeks by comparison with untreated controls (herbicidal activity in percent (%): 100% efficacy=the plants have died, 0% efficacy=like control plants). In this test, for example, compounds no. […] Compounds no. […] Compounds no.

corn [3] = assay: Pre-emergence test, damage to crop plants; conditions: application rate 320 g/ha, scored visually after 3 weeks
Source text: as §2

corn [4] = assay: Post-emergence test, damage to crop plants; conditions: application rate 80 g/ha, scored visually after about 3 weeks
Procedure: as §1

SMILES | damage in rice (rice) | damage in wheat (wheat [1]) | damage in wheat (wheat [2]) | damage in corn (corn [3]) | damage in corn (corn [4])
Cc1c(C(=O)Nc2nnnn2C)ccc2c1SCC=C2 [61-1] | did not cause any damage at all | did not cause any damage at all | did not cause any damage at all | – | –
Cc1c(C(=O)Nc2nnnn2C)ccc2c1S(=O)(=O)C=C2 [7-1] | – | – | did not cause any damage at all | – | –
CC1=Cc2c(ccc(C(=O)Nc3nonc3C)c2Cl)S1(=O)=O [17-19] | did not cause any damage at all | did not cause any damage at all | did not cause any damage at all | did not cause any damage at all | –
CC1=Cc2c(ccc(C(=O)Nc3nonc3-n3cncn3)c2Cl)S1(=O)=O [60-115] | – | – | did not cause any damage at all | did not cause any damage at all | –
CC1=Cc2c(ccc(C(=O)Nc3nnnn3Cc3ccc(Cl)cc3)c2Cl)S1(=O)=O [59-51] | – | did not cause any damage at all | – | – | did not cause any damage at all
Cc1c(C(=O)Nc2nnnn2C)ccc2c1S(=O)(=O)CC=C2 [67-1] | – | did not cause any damage at all | – | – | did not cause any damage at all
